The values that follow come from patent US20250352505A1, “COMPOSITIONS AND METHODS OF TREATING RESPIRATORY SYNCYTIAL VIRUS” (University of South Florida, priority 2023, published 2025).

In series [1] the test system is HIV gene expression. To be noted: cited from earlier work.
Series [2] has as its system Candida strains. Put plainly: Antifungal screening. The class given is cell-based. The following applies: several Candida strains / fungal screens.
The subject of series [3] is recombinant RSV encoding Renilla luciferase (rA2-Rluc). Description: RSV antiviral assay (Renilla luciferase reporter RSV in A549 cells). The class given is cell-based, respiratory syncytial virus. To be noted: for activity against RSV (in words): inhibition of RSV gene expression / viral transcription; for IC50: rA2-Rluc in A549 cells, 24 h, luciferase activity, read-out: IC50 against RSV. How it is done: A549 (CCL-185, ATCC) cells were seeded at 1.6×10^4 cells in 100 μl of 5% FBS/1× penicillin-streptomycin/F12 medium per well in 96-well uClear® black plates with clear bottom (Greiner 655090). Cells were infected with 400 PFU/well of a recombinant RSV encoding Renilla luciferase as an additional transcription unit (rA2-Rluc^22) in total volume of 50 μL/well and allowed to adsorb for 1 h. Purified compounds were serially diluted two-fold in triplicate and 50 μL/well of the diluted extracts were added to the infected cells. After further incubation at 37° C. and 5% CO2 for 24 h, the supernatants were removed and cells were lysed using Renilla lysis buffer (Promega). Luciferase activity was measured with the Renilla Luciferase reagent (Promega) and BioTek Synergy Mx microplate luminometer using Gen5 version 2.00.18 software. RSV antiviral effect for test samples was determined by normalizing to DMSO-treated control samples and multiplying by 100 to obtain percent of control. Statistical analysis was performed using GraphPad Prism software version 9.4.1.
(In general: A reporter such as luciferase makes a cellular process visible.)

For series [4], the system named is ESKAPE pathogens. Put plainly: Antibacterial screening. In kind it is cell-based. The following applies: ESKAPE pathogens / bacterial screens.
Series [5] has as its system panel of tumor cell lines. To be noted: cited from earlier work.
The subject of series [6] is MRSA. The following applies: cited from earlier work.

What is called IC50 is the midpoint of a concentration-inhibition curve.

Turning to anvilone A, the HIV gene expression entry in series [1] was “turned on HIV gene expression”.
For the compound `CC(=O)OC1CC2(C)C(O)C(C3CC(=O)C(C)=CC3O)=CCC2C2(C)CCCC(C)(C)C12` (stereo not shown) [Compound 3, Suberitenone F], the antifungal activity result in series [2] was “inactive”. In addition, the “activity against RSV (in words)” value in series [3] is reported as “active”. For the same compound, in series [4], the antibacterial activity entry is “inactive”.
On to `CC(=O)OC1CC2(C)CC(O)(C3CC(=O)C(C)=CC3O)CCC2C2(C)CCCC(C)(C)C12` (stereo not shown) [Compound 11, suberitenone B], for which the antifungal activity result in series [2] was “inactive”. For the same compound, in series [3], the “activity against RSV (in words)” value is “active” and the IC50 turned out to be 3.5 µM. For the same compound, the antibacterial activity entry in series [4] is “inactive”.
For isosuberitenone B, in series [5], the “cytotoxicity against a panel of tumor cell lines” value is reported as “weak cytotoxicity”.
For `CC(=O)OC1CC2(C)C=C(C3CC(=O)C(C)=CC3O)CCC2C2(C)CCCC(C)(C)C12` (stereo not shown) [Compound 10, suberitenone A], the antifungal activity result in series [2] is “inactive”. Also, in series [3], the “activity against RSV (in words)” value was “active” and the IC50 worked out at 7.9 µM. The antibacterial activity entry in series [4] was “inactive”.
As to 19-episuberitenone B, the “cytotoxicity against a panel of tumor cell lines” value in series [5] is “weak cytotoxicity”.
For oxaspirosuberitenone, the “antibacterial activity against MRSA” value in series [6] is given as “mild antibacterial activity”.
Regarding `CC(=O)OC1CC2(C)C=C3C4CC(=O)C(C)(CC4O)C3CC2C2(C)CCCC(C)(C)C12` (stereo not shown) [Compound 1, Neosuberitenone A], in series [3] (25 μg/mL), the “viral inhibitory effects at 25 μg/mL” value was “did not show any viral inhibitory effects”.
